# Source: US11078540B2, “Methods of diagnosing and treating cancer in patients having or developing resistance to a first cancer therapy” (DANA-FARBER CANCER INSTITUTE, INC., priority 2010, dated 2021)
# What was measured:
# B-RAF^V600E cell lines = assay: Pharmacologic growth inhibition assays (WST1 viability, GI50, single-dose studies); assay type: cell-based, human; details: for cell growth, in combination with PLX4720: ectopic COT expression, 1 μM each, versus single-agent PLX4720 up to 10 μM
# Procedure: Cultured cells were seeded into 96-well plates (3,000 cells per well) for all melanoma cell lines; 1,500 cells were seeded for A375. Twenty-four hours after seeding, serial dilutions of the relevant compound were prepared in DMSO added to cells, yielding final drug concentrations ranging from 100 μM to […], with the final volume of DMSO not exceeding 1%. Cells were incubated for 96 h following addition of drug. Cell viability was measured using the WST1 viability assay (Roche). Viability was calculated as a percentage of control (untreated cells) after background subtraction. A minimum of six replicates were performed for each cell line and drug combination. Data from growth-inhibition assays were modeled using a nonlinear regression curve fit with a sigmoid dose-response. […] Sigmoid-response curves that crossed the 50% inhibition point at or above 10 μM have GI50 values annotated as >10 μM. For single-dose studies, the identical protocol was followed, using a single dose of indicated drug (1 μM unless otherwise noted).
# [1] = tested on: pERK1/2 (T202/Y204), pMEK1/2 (S217/221); assay: Immunoblots and immunoprecipitations of MAPK pathway proteins in treated cells; assay type: cell-based, human; details: for pERK expression, in combination with PLX4720: ectopic COT expression, 1 μM each, versus single-agent PLX4720 up to 10 μM
# Procedure: Cells were washed twice with ice-cold PBS and lysed with 1% NP-40 buffer [150 mM NaCl, 50 mM Tris pH 7.5, 2 mM EDTA pH 8, 25 mM NaF and 1% NP-40] containing 2× protease inhibitors (Roche) and 1× Phosphatase Inhibitor Cocktails I and II (CalBioChem). Lysates were quantified (Bradford assay), normalized, reduced, denatured (95° C.) and resolved by SDS gel electrophoresis on 10% Tris/Glycine gels (Invitrogen). Protein was transferred to PVDF membranes and probed with primary antibodies recognizing pERK1/2 (T202/Y204), pMEK1/2 (S217/221), MEK1/2, MEK1, MEK2, C-RAF (rabbit host), pC-RAF (pS338) (Cell Signaling Technology; 1:1,000), V5-HRP (Invitrogen; (1:5,000), COT (1:500), B-RAF (1:2,000), Actin (1:1,000), Actin-HRP (1:1,000; Santa Cruz)), C-RAF (mouse host; 1:1,000; BD Transduction Labs), Vinculin (Sigma; 1:20,000), AXL (1:500; R&D Systems). After incubation with the appropriate secondary antibody (anti-rabbit, anti-mouse IgG, HRP-linked; 1:1,000 dilution, Cell Signaling Technology or anti-goat IgG, HRP-linked; 1:1,000 dilution; Santa Cruz), proteins were detected using chemiluminescence (Pierce). Immunoprecipitations were performed overnight at 4° C. in 1% NP-40 lysis buffer, as described above, at a concentration of 1 μg/μl total protein using an antibody recognizing C-RAF (1:50; Cell Signaling Technology). Antibody: antigen complexes were bound to Protein A agarose (25 μL, 50% slurry; Pierce) for 2 hrs. at 4° C. Beads were centrifuged and washed three times in lysis buffer and eluted and denatured (95° C.) in 2× reduced sample buffer (Invitrogen). Immunoblots were performed as above. Phospho-protein quantification was performed using NIH Image J.
# COT mRNA = assay: Quantitative RT-PCR of COT mRNA in lesion-matched biopsies of PLX4032-treated metastatic melanoma patients; assay type: in vivo, human; details: 3 patients with metastatic B-RAF^V600E melanoma, on-treatment vs pre-treatment biopsies
# Source text: Biopsied tumor material consisted of discarded and de-identified tissue that was obtained with informed consent and characterized under protocol 02-017 (paired samples, Massachusetts General Hospital) and 07-087 (unpaired sample, Dana-Farber Cancer Institute). For paired specimens, ‘on-treatment’ samples were collected 10-14 days after initiation of PLX4032 treatment (Table 6).
# mRNA was extracted from cell lines and fresh-frozen tumors using the RNeasy kit (Qiagen). Total mRNA was used for subsequent reverse transcription using the SuperScript III First-Strand Synthesis SuperMix (Invitrogen) for cell lines and unpaired tumor samples, and the SuperScript VILO cDNA synthesis kit (Invitrogen) for paired frozen tumor samples. 5 μl of the RT reaction was used for quantitative PCR using SYBR Green PCR Master Mix and gene-specific primers, in triplicate, using an ABI 7300 Real Time PCR System. Primers used for detection are as follows: […]
# COT = target: T1, COT (Homo sapiens, UniProt P41279); assay: Inhibition of COT kinase activity in RPMI-7951 cells (MEK/ERK phosphorylation immunoblot); assay type: cell-based; details: 1 h treatment
# T1 construct: endogenous in cells; host or cells: RPMI-7951 (ATCC), MAP3K8/COT-amplified, B-RAF V600E melanoma line
# Procedure: Cells were washed twice with ice-cold PBS and lysed with 1% NP-40 buffer [150 mM NaCl, 50 mM Tris pH 7.5, 2 mM EDTA pH 8, 25 mM NaF and 1% NP-40] containing 2× protease inhibitors (Roche) and 1× Phosphatase Inhibitor Cocktails I and II (CalBioChem). Lysates were quantified (Bradford assay), normalized, reduced, denatured (95° C.) and resolved by SDS gel electrophoresis on 10% Tris/Glycine gels (Invitrogen). Protein was transferred to PVDF membranes and probed with primary antibodies recognizing pERK1/2 (T202/Y204), pMEK1/2 (S217/221), MEK1/2, MEK1, MEK2, C-RAF (rabbit host), pC-RAF (pS338) (Cell Signaling Technology; 1:1,000), V5-HRP (Invitrogen; (1:5,000), COT (1:500), B-RAF (1:2,000), Actin (1:1,000), Actin-HRP (1:1,000; Santa Cruz)), C-RAF (mouse host; 1:1,000; BD Transduction Labs), Vinculin (Sigma; 1:20,000), AXL (1:500; R&D Systems). After incubation with the appropriate secondary antibody (anti-rabbit, anti-mouse IgG, HRP-linked; 1:1,000 dilution, Cell Signaling Technology or anti-goat IgG, HRP-linked; 1:1,000 dilution; Santa Cruz), proteins were detected using chemiluminescence (Pierce). […] Immunoblots were performed as above. Phospho-protein quantification was performed using NIH Image J.
# Adherent RPMI-7951 cells were washed twice with 1×PBS and incubated overnight in serum-free growth media.
# A375 cells = assay: High throughput ORF screening: viability of A375 expressing the kinase ORF collection in 1 μM PLX4720 relative to untreated, normalized to MEK1DD (Cell Titer-Glo); assay type: cell-based, human
# Procedure: A375 melanoma cells were plated in 384-well microtiter plates (500 cells per well). The following day, cells were spin-infected with the lentivirally-packaged kinase ORF library in the presence of 8 ug/ml polybrene. 48 hours post-infection, media was replaced with standard growth media (2 replicates), media containing 1 μM PLX4720 (2 replicates, 2 time points) or media containing 10 ug/ml blasticidin (2 replicates). After four days and 6 days, cell growth was assayed using Cell Titer-Glo (Promega) according to manufacturer instructions. The entire experiment was performed twice.
# Raw luminescence values were imported into Microsoft Excel. Infection efficiency was determined by the percentage of duplicate-averaged raw luminescence in blasticidin selected cells relative to non-selected cells. ORFs with an infection efficiency of less than 0.70 were excluded from further analysis along with any ORF having a standard deviation of >15,000 raw luminescence units between duplicates. To identify ORFs whose expression affects proliferation, we compared the duplicate-averaged raw luminescence of individual ORFs against the average and standard deviation of all control-treated cells via the z-score, or standard score, below,
# [formula] where x=average raw luminescence of a given ORF, μ=the mean raw luminescence of all ORFs and σ=the standard deviation of the raw luminescence of all wells. Any individual ORF with a z-score>+2 or <−2 was annotated as affecting proliferation and removed from final analysis. Differential proliferation was determined by the percentage of duplicate-averaged raw luminescence values in PLX4720 (1 μM) treated cells relative to untreated cells. […] MEK1^DD normalized differential proliferation for each individual ORF was averaged across two duplicate experiments, with two time points for each experiment (day 4 and day 6). A z-score was then generated, as described above for average MEK1^DD normalized differential proliferation. ORFs with a z-score of >2 were considered hits and were followed up in the secondary screen.
molecule,measurement,setting,value
Cn1cnc2c(F)c(Nc3ccc(Br)cc3Cl)c(C(=O)NOCCO)cc21 [AZD6244],"cell growth, in combination with PLX4720",B-RAF^V600E cell lines,more effectively than did single-agent PLX4720
same,"pERK expression, in combination with PLX4720",[1],more effectively than did single-agent PLX4720
O=C(NOCC1CC1)c1ccc(F)c(F)c1Nc1ccc(I)cc1Cl [CI-1040],sensitivity to MEK inhibitor with ectopic COT expression,B-RAF^V600E cell lines; A375 and SKMEL28 cells ectopically expressing COT,decreased sensitivity
same,sensitivity of cell lines with aberrant MAP3K8/COT copy number/expression,B-RAF^V600E cell lines; B-RAF^V600E cell lines,insensitive
same,sensitivity to MEK inhibition (growth),B-RAF^V600E cell lines; OUMS-23 and RPMI-7951 cell lines,refractory
same,"cell growth, in combination with PLX4720",B-RAF^V600E cell lines,more effectively than did single-agent PLX4720
same,ERK phosphorylation,"[1]; OUMS-23 and RPMI-7951, 1 μM CI-1040",sustained ERK phosphorylation
same,"pERK expression, in combination with PLX4720",[1],more effectively than did single-agent PLX4720
CCCS(=O)(=O)Nc1ccc(F)c(C(=O)c2c[nH]c3ncc(-c4ccc(Cl)cc4)cc23)c1F [PLX4032],COT mRNA expression concurrent with treatment,COT mRNA,increased COT mRNA expression
"CN(c1cccnc1)c1cc2c(Nc3ccc(F)c(Cl)c3)c(C#N)cnc2cn1 [small molecule COT kinase inhibitor, 4-(3-Chloro-4-fluorophenylamino)-6-(pyridin-3-yl-methylamino)-3-cyano-[1,7]-naphthyridine]",MEK and ERK phosphorylation,COT,dose-dependent suppression
CCL4,Z-SCORE of average differential proliferation (1 μM PLX4720/control),"A375 cells; A375 cells expressing the named ORF, relative to mean of all ORFs (44.26%, SD 7.19%)",−0.13
same,"AVERAGE differential proliferation (1 μM PLX4720/control), relative to MEK DD","A375 cells; A375 cells expressing the named kinase-related ORF, 1 μM PLX4720 vs untreated control, normalized to MEK DD",43.30%
